US4071528A, “Certain thiazolidine and tetrahydrothiazine compounds” (May & Baker Limited, priority 1975, dated 1978)
Where two headings read alike, the source gives them in different places.

Experiments:
[1] = tested on: Nippostrongylus brasiliensis; assay: Activity against roundworms in rats, A.1: treatment 6 days after infection (patent infection), post-mortem worm counts; assay type: in vivo; details: 48 h, treated 6 days after infection, read-out: % Reduction of mean worm load
Experimental: In the Tables of results "s.c." means subcutaneous and the doses are expressed in mg/kg animal body weight. […] A.1. Rats were infected with 100 Nippostrongylus brasiliensis larvae each, by the subcutaneous route. After 6 days, when the infection was patent, the rats were randomised and allotted to groups of 5 animals each, ready for treatment. One group was used for each dose level of the test compound, which was administered by the oral or subcutaneous route, and in each experiment, one group of 10 animals was left untreated as a control. All the rats were killed for post-mortem worm counts 48 hours after treatment. The activities, expressed in terms of the percentage reduction in mean worm load of the treated groups compared with the untreated group, are shown in Table I.

[2] = tested on: Nippostrongylus brasiliensis; assay: Activity against roundworms in rats, A.2: treatment 24 hours after infection, post-mortem worm counts; assay type: in vivo; details: 144 h, treated 24 hours after infection, read-out: % Reduction of mean worm load
Experimental: In the Tables of results "s.c." means subcutaneous and the doses are expressed in mg/kg animal body weight. […] A.2. Rats were infected with 100 Nippostrongylus brasiliensis larvae each, by the subcutaneous route. After 24 hours the rats were randomised and allotted to groups of 5 animals each, ready for treatment. Doses of the test compound were then administered to each group by the oral or subcutaneous route, one group of 10 animals being left untreated as a control. All the rats were killed for post-mortem worm counts 6 days after dosing. The activities, expressed in terms of the percentage reduction in mean worm load of the treated groups compared with the untreated control group, are given below in Table II.

[3] = Oral acute toxicity (LD50) in mice; details: mouse, in vivo, observed during next 6 days
Source text: Mice were each treated orally with one of the compounds of formula I, and they were observed during the next 6 days. The LD50 figures obtained (doses lethal to 50% of mice tested) are shown in Table VII, expressed in mg/kg animal body weight.

[4] = tested on: Cooperia oncophora and Ostertagia ostertagi; assay: C.1 Activity against Cooperia oncophora and Ostertagia ostertagi in their adult stages in calves, faecal egg counts; assay type: in vivo; details: s.c. (methanesulphonate salt)
Experimental: In the Tables of results "s.c." means subcutaneous and the doses are expressed in mg/kg animal body weight. […] C.1. Activity against Cooperia oncophora and Ostertagia ostertagi in their adult stages in calves. Worm-free, 6-7 week old calves were each infected with 15,000 C. oncophora and 15,000 O. ostertagi larvae. Approximately 3 weeks later, doses of the test compound were administered to each group of 2 animals by the subcutaneous route, one group of two animals being left untreated as a control. Individual faecal egg counts were determined 1 day before treatment and 5-7 days after treatment.

Mycosphaerella pinodes = assay: Minimum effective concentration totally inhibiting fungal growth, Mycosphaerella pinodes, potato dextrose agar tubes; assay type: cell-based; details: Didymella pinodes, 48 h; total inhibition of fungal growth; tested at 50, 10 or 2 ppm; 25° C, 2 days
Experimental: Test tubes containing 4.0 ml of molten potato dextrose agar at about 50° C were inoculated with 0.5 ml of suspension of test compound and 0.5 ml of fungal suspension delivered from a sterile syringe to give a final concentration of each compound of 50, 10 or 2 ppm. Two replicate tubes were inoculated with each fungal species. After the addition of test compounds and fungal inoculum to the molten medium the tubes were sloped and the agar was allowed to set. The tubes were incubated at 25° C for either 2 days (Mycosphaerella pinodes) or 3 days (Helminthosporium avenae). […] The suspensions of test compounds were prepared by grinding 0.025 g of test compound with sterile distilled water containing 0.1 ml of 0.1% Texofor FX170 wetting agent, followed by dilution to the concentration desired. The inoculum of Mycosphaerella pinodes was prepared as follows: A one to two week old culture on Coon's agar on plates was scraped off with a glass rod and sterile distilled water and filtered through muslin. The filtrate, containing the spores, was used for inoculation.

Fasciola hepatica = assay: D. Activity against mature and immature liver flukes in sheep; assay type: in vivo; details: oral 25 mg/kg in gelatin capsules; for Mean % Reduction, Immature flukes: immature flukes in rest of liver; for Mean % Reduction, Mature flukes: mature flukes in bile ducts
Experimental: D. Activity against mature and immature liver flukes in sheep On the first day of the experiment a group of sheep were each infected with 300 metacercariae of liver fluke Fasciola hepatica and on the 56th day they were each infected with a further 300 metacercariae of F. hepatica. On day 70 of the experiment, doses of the test compounds of 25 mg/kg animal body weight were administered orally in gelatin capsules to groups of two animals per compound. One group of two animals was left untreated as controls. On day 98 of the experiment, all the sheep were killed. The number of mature flukes present in the bile ducts and the numbers of immature flukes present in the rest of the liver were counted. The activities, expressed in terms of the percentage reduction in mean fluke burdens compared with the untreated controls, are shown below in Table VI.

[5] = sc, s.c. (methanesulphonate salt, aqueous)

## COC(=O)N=C1SCC(=O)N1c1ccc(Sc2ccccc2)cc1NC(=O)CCN(C)C [L, 3-[2-(3-dimethylaminopropionamido)-4-phenylthiophenyl]-2-methoxycarbonyliminothiazolidin-4-one]
[1]; oral
  inhibition in vivo at 100 mg/kg: 90%
[2]; oral
  inhibition in vivo at 50 mg/kg: 81%
[2]; [5]
  inhibition in vivo at 50 mg/kg: 90%
[3]
  LD50 at 144 h: > 1000 mg/kg
[4]; 15 mg/kg
  % Reduction of mean egg count: 84%

## COC(=O)N=C1SCC(=O)N1c1ccc(SCC2CCCCC2)cc1NC(=O)CN(C)C [F, 3-[4-cyclohexylmethylthio-2-(2-dimethylaminoacetamido)phenyl]-2-methoxycarbonyliminothiazolidin-4-one]
[2]; oral
  inhibition in vivo at 100 mg/kg: 59%
[2]; [5]
  inhibition in vivo at 100 mg/kg: 46%
[4]; 25 mg/kg
  % Reduction of mean egg count: 50%

## CCCCCSc1ccc(N2C(=O)CSC2=NC(=O)OC)c(NC(=O)CN(C)C)c1 [J, 3-[2-(2-dimethylaminoacetamido)-4-n-pentylthiophenyl]-2-methoxycarbonyliminothiazolidin-4-one]
[1]; oral
  inhibition in vivo at 100 mg/kg: 59%
[2]; oral
  inhibition in vivo at 50 mg/kg: 99%
  inhibition in vivo at 100 mg/kg: 99%
[2]; [5]
  inhibition in vivo at 50 mg/kg: 99%
  inhibition in vivo at 100 mg/kg: 99%
[3]
  LD50 at 144 h: > 1000 mg/kg

## COC(=O)N=C1SCC(=O)N1c1ccc(SC2CCCC2)cc1NC(=O)CN(C)C [I, 3-[4-cyclopentylthio-2-(2-dimethylaminoacetamido)phenyl]-2-methoxycarbonyliminothiazolidin-4-one]
[2]; oral
  inhibition in vivo at 25 mg/kg: 97%
  inhibition in vivo at 100 mg/kg: 96%
[2]; [5]
  inhibition in vivo at 25 mg/kg: 87%
  inhibition in vivo at 100 mg/kg: 99%
[3]
  LD50 at 144 h: > 1000 mg/kg

## COC(=O)N=C1SCC(=O)N1c1cc(Sc2ccccc2)ccc1NC(=O)CN(C)C [Compound E, 3-[2-(2-dimethylaminoacetamido)-5-phenylthiophenyl]-2-methoxycarbonyliminothiazolidin-4-one]
[1]; oral
  inhibition in vivo at 100 mg/kg: 65%
[1]; [5]
  inhibition in vivo at 100 mg/kg: 54%
[2]; oral
  inhibition in vivo at 50 mg/kg: 95%
[2]; [5]
  inhibition in vivo at 50 mg/kg: 99%
Mycosphaerella pinodes
  MIC: < 2 µg/mL
[3]
  LD50 at 144 h: > 1000 mg/kg
[4]; 15 mg/kg
  % Reduction of mean egg count: 100%

## CCCSc1ccc(N2C(=O)CSC2=NC(=O)OC)c(NC(=O)CN(C)C)c1 [K, 3-[2-(2-dimethylaminoacetamido)-4-n-propylthiophenyl]-2-methoxycarbonyliminothiazolidin-4-one]
[1]; oral
  inhibition in vivo at 50 mg/kg: 99%
[1]; [5]
  inhibition in vivo at 50 mg/kg: 96%
[2]; oral
  inhibition in vivo at 3.125 mg/kg: 92%
  inhibition in vivo at 50 mg/kg: 97%
[2]; [5]
  inhibition in vivo at 3.125 mg/kg: 96%
  inhibition in vivo at 50 mg/kg: 98%
[3]
  LD50 at 144 h: > 1000 mg/kg
[4]; 15 mg/kg
  % Reduction of mean egg count: 85%

## CCSc1ccc(N2C(=O)CSC2=NC(=O)OC)c(NC(=O)CN(C)C)c1 [C, 3-[4-ethylthio-2-(2-dimethylaminoacetamido)phenyl]-2-methoxycarbonyliminothiazolidin-4-one]
[1]; oral
  inhibition in vivo at 100 mg/kg: 74%
[1]; [5]
  inhibition in vivo at 100 mg/kg: 89%
[2]; oral
  inhibition in vivo at 12.5 mg/kg: 81%
  inhibition in vivo at 50 mg/kg: 90%
[2]; [5]
  inhibition in vivo at 12.5 mg/kg: 86%
  inhibition in vivo at 50 mg/kg: 98%
Fasciola hepatica
  Mean % Reduction, Immature flukes: 85%
  Mean % Reduction, Mature flukes: 72%
[3]
  LD50 at 144 h: > 1000 mg/kg
[4]; 15 mg/kg
  % Reduction of mean egg count: 100%

## CCN(CC)CC(=O)Nc1cc(Sc2ccccc2)ccc1N1C(=O)CSC1=NC(=O)OC [Compound D, 3-[2-(2-diethylaminoacetamido)-4-phenylthiophenyl]-2-methoxycarbonyliminothiazolidin-4-one]
[1]; oral
  inhibition in vivo at 100 mg/kg: 99%
[1]; [5]
  inhibition in vivo at 100 mg/kg: 88%
[2]; oral
  inhibition in vivo at 12.5 mg/kg: 96%
  inhibition in vivo at 50 mg/kg: 98%
[2]; [5]
  inhibition in vivo at 25 mg/kg: 96%
  inhibition in vivo at 50 mg/kg: 100%
Fasciola hepatica
  Mean % Reduction, Immature flukes: 75%
  Mean % Reduction, Mature flukes: less than 50%
[3]
  LD50 at 144 h: > 1000 mg/kg
[4]; 15 mg/kg
  % Reduction of mean egg count: 98%

## C=CCSc1ccc(N2C(=O)CSC2=NC(=O)OC)c(NC(=O)CN(C)C)c1 [B, 3-[4-allylthio-2-(2-dimethylaminoacetamido)phenyl]-2-methoxycarbonyliminothiazolidin-4-one]
[1]; oral
  inhibition in vivo at 100 mg/kg: 97%
[1]; [5]
  inhibition in vivo at 100 mg/kg: 90%
[2]; oral
  inhibition in vivo at 50 mg/kg: 98%
[2]; [5]
  inhibition in vivo at 50 mg/kg: 97%
[3]
  LD50 at 144 h: > 1000 mg/kg
[4]; 15 mg/kg
  % Reduction of mean egg count: 44%

## CCCCSc1ccc(N2C(=O)CSC2=NC(=O)OC)c(NC(=O)CN(C)C)c1 [G, 3-[4-n-butylthio-2-(2-dimethylaminoacetamido)phenyl]-2-methoxycarbonyliminothiazolidin-4-one]
[1]; oral
  inhibition in vivo at 100 mg/kg: 96%
[1]; [5]
  inhibition in vivo at 100 mg/kg: 84%
[2]; oral
  inhibition in vivo at 12.5 mg/kg: 95%
  inhibition in vivo at 50 mg/kg: 98%
[2]; [5]
  inhibition in vivo at 12.5 mg/kg: 96%
  inhibition in vivo at 50 mg/kg: 100%
[3]
  LD50 at 144 h: > 1000 mg/kg
